≈ marks a conversion by molar mass, not a printed value.
Assays:
[1] = test system: Avena sativa (cv. Echidna); experiment: Brownout of oat seedlings after track-sprayer application (Example 21); type: in vivo; conditions: concentrations of 0.1% v/v and above; with GrowChoice 450 g/L glyphosate
Method: The experiment tested whether the addition of dendrimers at various concentrations increased penetration into plant tissue and thus improved the rate of kill utilizing the herbicide glyphosate IPA (GrowChoice® 450 g/L present as the isopropylamine salt). Oats were selected for assessment of glyphosate efficacy because there is less genetic variation. All dosing was carried out at sublethal doses in order to witness a dose effect which is enhanced with dendrimer. A standard dose in the positive control would result in death of the oats and would be presumably replicated in the dendrimer treatments.
Avena sativa (cv. Echidna) was sown in 10 cm diameter pots filled with potting mix (AS 3743). Enough seeds were planted to ensure a minimum of seven seedlings per treatment group. Seeds were germinated in a temperature-controlled greenhouse (14° C.-25° C.) for 7 days. […]
The herbicide, glyphosate IPA (GrowChoice® 450 g/L present as the isopropylamine salt), was applied using an enclosed laboratory track-sprayer fitted with three 110° flat fan nozzles (Teejet XR11001-VS) spaced at 50 cm intervals across the boom. […] A total of 5 concentrations of the Example 2 G1-OH dendrimer (0.01, 0.05, 0.1, 0.2 & 0.5% v/v) were evaluated for enhancement of herbicidal effect at each of the rates of glyphosate tested (35, 70, 140 & 280 g ai/ha).
After 10 days the treated plants were assessed for % brownout. […]

[2] = Solubility of active constituents in dendrimer solutions by HPLC (Example 26); type: physicochemical
Method: Four PEHAM dendrimers, each at 10 g/L and 100 g/L in water, were used for evaluation. A 15 g of each dendrimer was dissolved in distilled water and made accurately to 150 mL volume. Determination of pH was then made using a calibrated pH meter and electrode.
To prepare saturated solutions of active constituent in 100 g/L dendrimer solutions, 10 mL of each 100 g/L dendrimer solution was placed into a 50 mL test tube and 0.2 g of active constituent was then also added. The test tube was then briefly shaken to disperse the contents, before being placed in an ultrasonic water bath, and subjected to sonication for 30 mins at […] The test tube and contents were then cooled to […] and then a 2.0 mL aliquot was taken and filtered through a 0.45 μm PTFE membrane filter.
To prepare saturated solutions of active constituent in 10 g/L dendrimer solutions, 1.0 mL of each 100 g/L dendrimer solution was placed into a 50 mL test tube and a 9.0 mL aliquot of distilled water added and 0.2 g of active constituent was then also added. The test tube was then briefly shaken to disperse the contents, before being placed in an ultrasonic water bath, and subjected to sonication for 30 mins at […] The test tube and contents were then cooled to […] and then a 2.0 mL aliquot was taken and filtered through a 0.45 μm PTFE membrane filter
Each prepared and filtered solution was examined in a light box for Tyndall Scattering (light scattering by particles in a colloid or particles in a fine suspension). A visual observation was made and recorded for each solution. Ten active constituents that were selected to cover a range of water solubility were treated according to the method described here. A total of 200 filtered solutions were prepared.
High Performance Liquid Chromatography was used to analyse each active constituent in each dendrimer solution. Each saturated active constituent solution was freshly prepared for immediate analysis or frozen at <−15° C. where analysis could not take place within 2 hours of preparation. The following are details of the HPLC equipment used. For each active constituent a set of 4 calibration solutions was prepared 0 to 25 ppm. A sequence of injections comparing the peak area of the calibration solutions and the dendrimer solutions was then undertaken. The dendrimer solutions were diluted as required to maintain their respective peak area response within the calibration range. The active constituent concentration (ppm) in the dendrimer solution was determined by calculation: RF×SA×DF, where RF=Response Factor (concentration of calibration solution per unit of peak area, SA=Sample Peak Area (peak area of the sample solution), and DF=Dilution Factor (dilution of the sample solution). HPLC conditions were varied to ensure the optimum detection and separation of each active constituent from excipients.

[3] = physchem; type: physicochemical; conditions: water; at pH 7; trifluralin control without dendrimer; read-out: Solubility assessment by GC assay
Method: To a 10% w/w solution of agrochemical active dissolved in a suitable volatile organic solvent, (e.g., MeOH, DCM, EtOH, acetone or other appropriate solvent) was added a 10% w/w solution of dendrimer in either water or the same organic solvent as above. The mixture was left to stir for 2-4 h after which time the volatile organic solvent was then removed under reduced pressure to provide a 1:1 mixture of the active and dendrimer. This oily solution was then dissolved in water and filtered. Analysis of active content in the aqueous solution by HPLC or GC assay provided an estimate of the solubility increase due to the addition of the dendrimer.

SMILES	Ratio of Active Ingredient in Dendrimer Solution (ppm) to Active Ingredient in Water (ppm) ([2]; 6-BAP, 10 g/L loading)	Ratio of Active Ingredient in Dendrimer Solution (ppm) to Active Ingredient in Water (ppm) ([2]; 6-BAP, 100 g/L loading)	Ratio of Active Ingredient in Dendrimer Solution (ppm) to Active Ingredient in Water (ppm) ([2]; Bifenthrin, 10 g/L loading)	Ratio of Active Ingredient in Dendrimer Solution (ppm) to Active Ingredient in Water (ppm) ([2]; Bifenthrin, 100 g/L loading)	Ratio of Active Ingredient in Dendrimer Solution (ppm) to Active Ingredient in Water (ppm) ([2]; Clomazone, 10 g/L loading)	Ratio of Active Ingredient in Dendrimer Solution (ppm) to Active Ingredient in Water (ppm) ([2]; Clomazone, 100 g/L loading)	Ratio of Active Ingredient in Dendrimer Solution (ppm) to Active Ingredient in Water (ppm) ([2]; Flumetsulam, 10 g/L loading)	Ratio of Active Ingredient in Dendrimer Solution (ppm) to Active Ingredient in Water (ppm) ([2]; Flumetsulam, 100 g/L loading)	Ratio of Active Ingredient in Dendrimer Solution (ppm) to Active Ingredient in Water (ppm) ([2]; Mcylobutanil, 10 g/L loading)	Ratio of Active Ingredient in Dendrimer Solution (ppm) to Active Ingredient in Water (ppm) ([2]; Mcylobutanil, 100 g/L loading)	Ratio of Active Ingredient in Dendrimer Solution (ppm) to Active Ingredient in Water (ppm) ([2]; Penconazole, 10 g/L loading)	Ratio of Active Ingredient in Dendrimer Solution (ppm) to Active Ingredient in Water (ppm) ([2]; Penconazole, 100 g/L loading)	Ratio of Active Ingredient in Dendrimer Solution (ppm) to Active Ingredient in Water (ppm) ([2]; Pendimethalin, 10 g/L loading)	Ratio of Active Ingredient in Dendrimer Solution (ppm) to Active Ingredient in Water (ppm) ([2]; Pendimethalin, 100 g/L loading)	Ratio of Active Ingredient in Dendrimer Solution (ppm) to Active Ingredient in Water (ppm) ([2]; Propaquizafop, 10 g/L loading)	Ratio of Active Ingredient in Dendrimer Solution (ppm) to Active Ingredient in Water (ppm) ([2]; Propaquizafop, 100 g/L loading)	Ratio of Active Ingredient in Dendrimer Solution (ppm) to Active Ingredient in Water (ppm) ([2]; Thiamethoxam, 10 g/L loading)	Ratio of Active Ingredient in Dendrimer Solution (ppm) to Active Ingredient in Water (ppm) ([2]; Thiamethoxam, 100 g/L loading)	Ratio of Active Ingredient in Dendrimer Solution (ppm) to Active Ingredient in Water (ppm) ([2]; Thidiazuron, 10 g/L loading)	Ratio of Active Ingredient in Dendrimer Solution (ppm) to Active Ingredient in Water (ppm) ([2]; Thidiazuron, 100 g/L loading)	further results
CCC(COCC(O)CN(CCO)CCO)(COCC(O)CN(CCO)CCO)COCC(O)CN(CCO)CCO (stereo not shown) [Example 2, [(C)=TMPTGE; (FF)=Et; (IF1)=OH; (BR1)=DEA; (TF)=OH; G=1]]	4	967	1	1	1	1	2	4	2	4	2	43	1	6	1	1	2	2	7	39	rate of brownout [1]: did enhance the rate of brownout
CCC(COCC(O)CN(CC(=O)[O-])CC(=O)[O-])(COCC(O)CN(CC(=O)[O-])CC(=O)[O-])COCC(O)CN(CC(=O)[O-])CC(=O)[O-].[Na+].[Na+].[Na+].[Na+].[Na+].[Na+] (stereo not shown) [Example 10, [(C)=TMPTGE; (FF)=Et; (IF1)=OH; (BR1)=IDA; (TF)=CO2Na; G=1]]	7	448	1	1	1	1	2	2	2	2	2	3	11	2	1	1	2	1	19	40	
CCC(COCC(O)CN(CCN)CCN)(COCC(O)CN(CCN)CCN)COCC(O)CN(CCN)CCN (stereo not shown) [Example 14, [(C)=TMPTGE; (IF1)=OH; (BR1)=DETA; (TF)=Primary NH2; G=1]]	10	2740	1	4	1	1	2	2	3	4	2	6	172	15	1	1	2	1	46	329	
CCC(COCC(O)CN(CCOC)CCOC)(COCC(O)CN(CCOC)CCOC)COCC(O)CN(CCOC)CCOC (stereo not shown) [Example 15, [(C)=TMPTGE; (FF)=Et; (IF1)=OH; (BR1)=DEA; (TF)=OMe; G=1]]	3	475	9	1	1	1	1	2	2	3	2	12	44	41	1	1	2	2	5	17	
CCCN(CCC)c1c([N+](=O)[O-])cc(C(F)(F)F)cc1[N+](=O)[O-] [trifluralin]																					solubility [3]: 0.22 µg/mL (≈ 0.656 µM)

Source: patent publication US9585387B1, “PEHAM dendrimers for use in agriculture” (Starpharma Pty Ltd, priority 2009, dated 2017)
